Laboratory results: ChEMBL document CHEMBL3272205, “Pyrazolodiazepines. 2. 4-Aryl-1,3-dialkyl-6,8-dihydropyrazolo[3,4-e] [1,4]diazepin-7(1H)-ones as antianxiety and anticonvulsant agents” (1977)

What was measured:
Assay type in all cases: functional
[1] = species on record: Rattus norvegicus; experiment: Antianxiety activity in Holtzman rat assessed as dose required to elicit increase in milk consumption; conditions: read-out: MED
[2] = species on record: Rattus norvegicus; experiment: Anticonvulsant activity in rat assessed as protection against pentylenetetrazole-induced clonic seizures; conditions: read-out: MED
[3] = species on record: Rattus norvegicus; experiment: Ratio of diazepam MED to compound MED for antianxiety activity in Holtzman rat

SMILES: Cl.Cn1ncc2c1NC(=O)CN=C2c1ccccc1
- minimal effective dose [1]: > 80 mg/kg
- minimal effective dose [2]: 250 mg/kg

SMILES: Cc1nn(C)c2c1C(c1ccccc1)=NCC(=O)N2
- minimal effective dose [1]: 10 mg/kg
- minimal effective dose [2]: 16 mg/kg

SMILES: Cc1nn(C)c2c1C(c1ccccc1)=NCC(=O)N2C
- minimal effective dose [1]: 2.5 mg/kg
- minimal effective dose [2]: 4 mg/kg

SMILES: Cc1nn(C)c2c1C(c1ccccc1)=NCC(=O)N2C.Cl
- minimal effective dose [1]: 2.5 mg/kg
- minimal effective dose [2]: 4 mg/kg

SMILES: Cc1nn(C)c2c1C(c1cccs1)=NCC(=O)N2
- minimal effective dose [1]: 40 mg/kg

SMILES: CCc1nn(C)c2c1C(c1ccccc1)=NCC(=O)N2
- minimal effective dose [1]: 2.5 mg/kg
- minimal effective dose [2]: 8 mg/kg

SMILES: CCc1nn(C)c2c1C(c1ccccc1)=NCC(=O)N2C
- minimal effective dose [1]: 1.25 mg/kg
- minimal effective dose [2]: 4 mg/kg

SMILES: Cc1nn(C)c2c1C(c1ccccc1Cl)=NCC(=O)N2
- minimal effective dose [1]: 2.5 mg/kg
- minimal effective dose [2]: 16 mg/kg

SMILES: Cc1nn(C)c2c1C(c1ccccc1Cl)=NCC(=O)N2C.Cl
- minimal effective dose [1]: 2.5 mg/kg
- minimal effective dose [2]: 4 mg/kg

SMILES: Cc1nn(C)c2c1C(c1cccc(Cl)c1)=NCC(=O)N2
- minimal effective dose [1]: > 40 mg/kg
- minimal effective dose [2]: > 500 mg/kg

SMILES: Cc1nn(C)c2c1C(c1ccccc1F)=NCC(=O)N2
- minimal effective dose [1]: 2.5 mg/kg
- minimal effective dose [2]: 8 mg/kg

SMILES: CCN1C(=O)CN=C(c2ccccc2F)c2c(C)nn(C)c21
- minimal effective dose [1]: 5 mg/kg
- minimal effective dose [2]: 32 mg/kg

SMILES: CCc1nn(C)c2c1C(c1ccccc1F)=NCC(=O)N2
- minimal effective dose [1]: 1.25 mg/kg
- minimal effective dose [2]: 2 mg/kg

SMILES: CCc1nn(C)c2c1C(c1ccccc1F)=NCC(=O)N2.Cl
- minimal effective dose [1]: 1.25 mg/kg
- minimal effective dose [2]: 2 mg/kg

SMILES: CCc1nn(C)c2c1C(c1ccccc1F)=NCC(=O)N2C
- minimal effective dose [1]: 1.25 mg/kg
- minimal effective dose [2]: 4 mg/kg

SMILES: CCc1nn(C)c2c1C(c1cccc(F)c1)=NCC(=O)N2
- minimal effective dose [1]: 20 mg/kg
- minimal effective dose [2]: 32 mg/kg

SMILES: CCc1nn(C)c2c1C(c1cccc(F)c1)=NCC(=O)N2C
- minimal effective dose [1]: 10 mg/kg
- minimal effective dose [2]: 32 mg/kg

SMILES: CCc1nn(C)c2c1C(c1ccc(F)cc1)=NCC(=O)N2
- minimal effective dose [1]: > 40 mg/kg
- minimal effective dose [2]: > 500 mg/kg

SMILES: CCc1nn(C)c2c1C(c1ccc(F)cc1)=NCC(=O)N2C
- minimal effective dose [1]: > 40 mg/kg
- minimal effective dose [2]: > 500 mg/kg

SMILES: Cc1nn(C)c2c1C(c1ccccc1Br)=NCC(=O)N2C
- minimal effective dose [1]: 5 mg/kg
- minimal effective dose [2]: 4 mg/kg

SMILES: Cc1nn(C)c2c1C(c1c(F)cccc1F)=NCC(=O)N2C
- minimal effective dose [1]: 20 mg/kg
- minimal effective dose [2]: 2 mg/kg

SMILES: Cc1nn(C)c2c1C(c1ccccc1[N+](=O)[O-])=NCC(=O)N2C
- minimal effective dose [2]: 8 mg/kg

SMILES: Cc1nn(C)c2c1C(c1ccccc1N=[N+]=[N-])=NCC(=O)N2C
- minimal effective dose [1]: > 40 mg/kg
- minimal effective dose [2]: 63 mg/kg

SMILES: Cn1nc(Cl)c2c1NC(=O)CN=C2c1ccccc1
- minimal effective dose [1]: 40 mg/kg
- minimal effective dose [2]: 63 mg/kg

SMILES: COc1nn(C)c2c1C(c1ccccc1F)=NCC(=O)N2C
- minimal effective dose [1]: 10 mg/kg
- minimal effective dose [2]: 8 mg/kg

SMILES: CCc1nn(C)c2c1C(c1ccccc1Cl)=NCC(=O)N2
- minimal effective dose [1]: 2.5 mg/kg
- minimal effective dose [2]: 32 mg/kg

SMILES: CCc1nn(C)c2c1C(c1ccccc1Cl)=NCC(=O)N2C
- minimal effective dose [1]: 0.63 mg/kg
- minimal effective dose [2]: 16 mg/kg

SMILES: CC(C)c1nn(C)c2c1C(c1ccccc1Cl)=NCC(=O)N2
- minimal effective dose [1]: > 40 mg/kg
- minimal effective dose [2]: 125 mg/kg

SMILES: CC(C)c1nn(C)c2c1C(c1ccccc1Cl)=NCC(=O)N2C
- minimal effective dose [1]: > 40 mg/kg
- minimal effective dose [2]: 63 mg/kg

SMILES: CCCc1nn(C)c2c1C(c1ccccc1Cl)=NCC(=O)N2
- minimal effective dose [1]: > 40 mg/kg
- minimal effective dose [2]: 250 mg/kg

SMILES: CCCc1nn(C)c2c1C(c1ccccc1Cl)=NCC(=O)N2C
- minimal effective dose [1]: > 40 mg/kg
- minimal effective dose [2]: 63 mg/kg

SMILES: CCCCc1nn(C)c2c1C(c1ccccc1Cl)=NCC(=O)N2
- minimal effective dose [1]: > 40 mg/kg
- minimal effective dose [2]: > 500 mg/kg

SMILES: CCCCc1nn(C)c2c1C(c1ccccc1Cl)=NCC(=O)N2C
- minimal effective dose [1]: > 40 mg/kg
- minimal effective dose [2]: 125 mg/kg

SMILES: CCn1nc(C)c2c1NC(=O)CN=C2c1ccccc1F
- minimal effective dose [1]: 2.5 mg/kg
- minimal effective dose [2]: 8 mg/kg

SMILES: CCn1nc(C)c2c1N(C)C(=O)CN=C2c1ccccc1F
- minimal effective dose [1]: 1.25 mg/kg
- minimal effective dose [2]: 4 mg/kg

SMILES: CCn1nc(C)c2c1NC(=O)CN=C2c1ccccc1Cl
- minimal effective dose [1]: 5 mg/kg
- minimal effective dose [2]: 8 mg/kg

SMILES: CCn1nc(C)c2c1N(C)C(=O)CN=C2c1ccccc1Cl
- minimal effective dose [1]: 0.63 mg/kg
- minimal effective dose [2]: 4 mg/kg

SMILES: C=CCN1C(=O)CN=C(c2ccccc2Cl)c2c(C)nn(CC)c21
- minimal effective dose [1]: > 40 mg/kg
- minimal effective dose [2]: 63 mg/kg

SMILES: CCCn1nc(C)c2c1NC(=O)CN=C2c1ccccc1Cl
- minimal effective dose [1]: 40 mg/kg
- minimal effective dose [2]: 63 mg/kg

SMILES: CCCn1nc(C)c2c1N(C)C(=O)CN=C2c1ccccc1Cl
- minimal effective dose [1]: 2.5 mg/kg
- minimal effective dose [2]: 16 mg/kg

SMILES: Cc1nn(C(C)C)c2c1C(c1ccccc1Cl)=NCC(=O)N2
- minimal effective dose [1]: 20 mg/kg
- minimal effective dose [2]: 16 mg/kg

SMILES: CCCCn1nc(C)c2c1NC(=O)CN=C2c1ccccc1Cl
- minimal effective dose [1]: 40 mg/kg
- minimal effective dose [2]: 32 mg/kg

SMILES: CCCCn1nc(C)c2c1N(C)C(=O)CN=C2c1ccccc1Cl
- minimal effective dose [1]: 40 mg/kg
- minimal effective dose [2]: 16 mg/kg

SMILES: CCCCn1nc(C)c2c1NC(=O)CN=C2c1cccc(Cl)c1
- minimal effective dose [1]: > 40 mg/kg
- minimal effective dose [2]: > 500 mg/kg

SMILES: Cc1nn(C2CCCCC2)c2c1C(c1ccccc1Cl)=NCC(=O)N2
- minimal effective dose [1]: > 40 mg/kg
- minimal effective dose [2]: > 500 mg/kg

SMILES: Cc1nn(C2CCCCC2)c2c1C(c1ccccc1Cl)=NCC(=O)N2C
- minimal effective dose [1]: > 40 mg/kg
- minimal effective dose [2]: 63 mg/kg

SMILES: Cc1nn(-c2ccccc2)c2c1C(c1ccccc1)=NCC(=O)N2
- minimal effective dose [1]: > 40 mg/kg
- minimal effective dose [2]: > 500 mg/kg

SMILES: Cc1nn(-c2ccccc2)c2c1C(c1ccccc1Cl)=NCC(=O)N2
- minimal effective dose [1]: 20 mg/kg
- minimal effective dose [2]: 500 mg/kg

SMILES: Cc1nn(C)c2c1C(c1ccccc1)=[N+]([O-])CC(=O)N2C
- minimal effective dose [1]: > 40 mg/kg
- minimal effective dose [2]: 63 mg/kg

SMILES: Cc1nn(C)c2c1C(c1ccccc1)=NC(O)C(=O)N2C (stereo not given)
- minimal effective dose [1]: 5 mg/kg
- minimal effective dose [2]: 16 mg/kg

SMILES: Cc1nn(C)c2c1C(c1ccccc1F)=[N+]([O-])CC(=O)N2C
- minimal effective dose [1]: 10 mg/kg
- minimal effective dose [2]: 8 mg/kg

SMILES: CC(=O)OC1N=C(c2ccccc2F)c2c(C)nn(C)c2N(C)C1=O (stereo not given)
- minimal effective dose [1]: 20 mg/kg
- minimal effective dose [2]: 8 mg/kg

SMILES: Cc1nn(C)c2c1C(c1ccccc1F)=NC(O)C(=O)N2C (stereo not given)
- minimal effective dose [1]: 2.5 mg/kg
- minimal effective dose [2]: 4 mg/kg

SMILES: CCc1nn(C)c2c1C(c1ccccc1)NCC(=O)N2C.Cl (stereo not given)
- minimal effective dose [1]: > 40 mg/kg
- minimal effective dose [2]: 63 mg/kg

SMILES: Cc1nn(C)c2c1C(c1ccccc1F)NCC(=O)N2C.Cl (stereo not given)
- minimal effective dose [1]: 1.2 mg/kg
- minimal effective dose [2]: 4 mg/kg

SMILES: CN1C(=O)CN=C(c2ccccc2)c2cc(Cl)ccc21 [DIAZEPAM]
- minimal effective dose [1]: 1.25 mg/kg
- minimal effective dose [2]: 4 mg/kg

SMILES: Cc1nn(C)c2c1C(c1ccccc1F)=NCC(=O)N2C.Cl [ZOLAZEPAM HYDROCHLORIDE]
- minimal effective dose [1]: 0.32 mg/kg
- minimal effective dose [2]: 2 mg/kg

SMILES: Cc1nn(C)c2c1C(c1ccccc1F)=NCC(=O)N2C [ZOLAZEPAM]
- minimal effective dose [1]: 0.32 mg/kg
- minimal effective dose [2]: 2 mg/kg
- Ratio [3]: 5
